Results published in US20080045513A1, “C[…] INHIBITOR AND […], ANTI-INFLAMMATORY OR ANTI-PYRETIC AGENT” (N.V. Organon, priority 2006, published 2008).

How the values were obtained:
FAAH = target: T1, FAAH (Homo sapiens, UniProt O00519); assay: FAAH LC-MS/MS screening assay (anandamide hydrolysis by human liver microsomes); type: biochemical; details: for anandamide hydrolysis allowed (percent hydrolysis normalized to control): inhibitor at 30 nM, 60 minute incubation at 37° C.
T1 construct: 25 μL of human liver microsomes (31.3 μg); from tissue; host or cells: human liver microsomes
T1 sequence (O00519 1-579): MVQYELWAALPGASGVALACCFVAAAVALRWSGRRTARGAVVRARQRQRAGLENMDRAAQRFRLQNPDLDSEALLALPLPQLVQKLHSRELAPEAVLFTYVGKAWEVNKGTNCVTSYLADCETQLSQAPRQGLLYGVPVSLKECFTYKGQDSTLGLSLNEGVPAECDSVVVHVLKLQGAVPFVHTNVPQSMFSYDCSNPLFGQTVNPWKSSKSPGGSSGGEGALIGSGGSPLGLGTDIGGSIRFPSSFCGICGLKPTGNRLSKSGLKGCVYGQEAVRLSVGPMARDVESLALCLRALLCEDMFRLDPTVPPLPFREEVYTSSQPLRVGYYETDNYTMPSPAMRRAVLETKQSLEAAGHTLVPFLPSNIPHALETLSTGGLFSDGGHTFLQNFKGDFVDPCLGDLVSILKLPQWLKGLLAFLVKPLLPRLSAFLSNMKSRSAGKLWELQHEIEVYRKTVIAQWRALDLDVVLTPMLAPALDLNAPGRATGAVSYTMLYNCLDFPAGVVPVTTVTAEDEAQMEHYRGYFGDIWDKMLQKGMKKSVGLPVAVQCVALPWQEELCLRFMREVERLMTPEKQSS
Procedure: For determining IC50 values for candidate FAAH inhibitor compounds, the above method is used with an adjusted FAAH inhibitor concentration. In the IC50 assay, the FAAH inhibitor is added at a concentration range of approximately 3 μM to 0.03 nM. The final calculation of IC50 is determined by first transforming the concentrations by “X=log(X)” and then analyzing the data with a sigmoidal dose-response curve (no constraints) using GraphPad Prism version 4.00 for Windows (GraphPad Software, San Diego Calif. USA, www.graphpad.com).

[1] = system: CFA-induced mechanical hyperalgesia in rats; assay: Complete Freund's Adjuvant (CFA)-induced mechanical hyperalgesia (paw withdrawal threshold); type: in vivo, male Wistar rats; details: 60 mg/kg, p.o.; 24 h after intraplantar CFA; reading 2 h post drug administration
Procedure: In this rat model of inflammatory pain, inflammation is induced by intraplantar injection of complete Freund's adjuvant (CFA) into the hind paw. The associated mechanical hyperalgesia is quantified by measuring the reduction in paw withdrawal threshold (PWT) to a mechanical compression of the paw.
Experiments were conducted using male Wistar rats weighing 130-180 g. In brief, the rats' paw withdrawal threshold (PWT) to a mechanical compression of the hind paw was measured (baseline reading) using a Randall-Sellito apparatus (Ugo Basile). A cut-off of 200 g was employed to minimise tissue damage to the paw. The animals were then briefly anaesthetised with isoflurane (˜2%) and complete Freund's adjuvant (0.1 ml per paw) was injected subcutaneously (s.c.) into the plantar surface of the left hind paw. The animals were then returned to their home cage and left for the inflammation to develop.
Twenty four hours after CFA injection, PWT's were re-measured (0 min); only those animals developing hyperalgesia (>20 g decrease in PWT compared to their baseline readings) were included for drug assessment. Rats were then dosed orally with either vehicle or test compound. Readings were then made at 2 h post drug administration.

[2] = Pharmacokinetics in rats following oral administration as a suspension; blood concentrations of compound, acetaminophen and fatty acid ethanolamides; type: in vivo; details: 10 mg/kg oral gavage
Procedure: Potential FAAH inhibitors are formulated for oral (p.o.), intraperitoneal (i.p.) or intravenous (i.v.) delivery to rats. Formulated compounds are administered and the animals were sacrificed at pre-determined time points post dose. At sacrifice, blood samples are collected into EDTA plasma tubes and whole brains were snap frozen in liquid nitrogen. EDTA plasma was isolated from blood samples after centrifugation. Brain and plasma samples are stored at −80° C. prior to analysis. All samples (brain and plasma) are analyzed for the concentrations of test compound (FAAH inhibitor), metabolites of the test compound (such as, for example, acetaminophen, propofol, NSAID, or NSAID metabolite) and endogenous fatty acid ethanolamide levels (including anandamide, oleoylethanolamide, and palmitoylethanolamide) by LC-MS/MS according to the invention. Levels of these compounds are compared across time points to determine pharmacokinetic properties of the test compound and partial pharmacological effects of inhibiting FAAH activity (including changes of fatty acid ethanolamide levels).
The pharmacokinetic properties of 4-acetamidophenyl cyclohexylnethylcarbamate were assessed in rats following oral administration as a suspension. […] The suspension of 4-acetamidophenyl cyclohexylmethylcarbamate was administered to rats at a dose of 10 mg/kg of 4-acetamidophenyl cyclohexylmethylcarbamate via oral gavage. Blood samples were extracted from the rats. Samples were analyzed for concentrations of OEA, PEA, AEA, 4-acetamidophenyl cyclohexylmethylcarbamate and acetaminophen (in-vivo metabolite). Baseline levels of OEA and PEA were 4.18 and 4.17 ng/mL, respectively.

SMILES	anandamide hydrolysis allowed (percent hydrolysis normalized to control) (FAAH) [%]	reversal of mechanical hyperalgesia [1]	IC50 (FAAH; inhibitor range approximately 3 μM to 0.03 nM) [nM]	AUC of AEA [2] [ng·h/mL]	Tmax of AEA [2] [h]	Tmax of OEA [2] [min]	Tmax of PEA [2] [min]	AUC of OEA ([2]; baseline OEA 4.18 ng/mL) [ng·h/mL]	Cmax of OEA ([2]; baseline OEA 4.18 ng/mL) [ng/mL]	AUC of PEA ([2]; baseline PEA 4.17 ng/mL) [ng·h/mL]	Cmax of PEA ([2]; baseline PEA 4.17 ng/mL) [ng/mL]	AUC ([2]; rat, plasma, suspension) [ng·h/mL]	Cmax ([2]; rat, plasma, suspension) [ng/mL]	Tmax ([2]; rat, plasma, suspension) [min]
CC(=O)Nc1ccc(OC(=O)NC2CCCCC2)cc1 [4-acetamidophenyl cyclohexylcarbamate]	56													
CC(=O)Nc1ccc(OC(=O)NCC2CCCCC2)cc1 [4-acetamidophenyl cyclohexylmethylcarbamate]	37	complete reversal	14.6	0	0	90	60	40	7.55	43	8.85	6780	7740	30
NC(=O)c1cccc(-c2cccc(OC(=O)NC3CCCCC3)c2)c1 [reference compound]	30													
